Marks after values point to notes of the source that are not given here.
System: apoptotic sunburn cells in the epidermis of SKH-1 mice
Test: UVB-induced apoptotic sunburn cells in the epidermis of SKH-1 mice after topical application
Format: in vivo, mouse
Conditions: for activity in stimulating UVB-induced apoptosis in mouse skin, compared with caffeine: first study of compounds structurally related to caffeine, given after UVB; for Percent Apoptotic Sunburn Cells: 6.2 μmole in 100 μL acetone right after UVB 30 mJ/cm^2 and at 30 and 120 min, 6 h after UVB; for activity in stimulating UVB-induced apoptosis, compared with caffeine: similar study, acetone:water (90:10) as vehicle (Table 1)
Experimental: Chemicals and Animals. […] Female SKH-1 hairless mice (6 to 7 weeks old) were purchased from the Charles River Breeding Laboratories, and the animals were kept in an animal facility for at least one week before use at 7 to 8 weeks of age. Mice were given water and PURINA® Laboratory CHOW® 5001 diet from Ralston-Purina (St. […] For the analysis conducted herein, 5 mice were used per group. Treatment of Mice with UVB. […] The radiation was further calibrated with a model IL-1700 research radiometer/photometer (International Light, Newburyport, Mass.). Measurement of apoptotic sunburn cells. Identification of apoptoic sunburn cells was based morphologically on cell shrinkage and nuclear condensation due to fragmentation of the cells. […] Six hours after UVB, the animals were sacrificed and apoptotic sunburn cells in the epidermis were determined morphologically. […] Six hours after UVB, the animals were sacrificed and apoptotic sunburn cells in the epidermis were determined morphologically. […] Acetone Formulation. […] Six hours after UVB, the animals were sacrificed and apoptotic sunburn cells in the epidermis were determined morphologically. […] […] Formulations. […] Six hours after UVB the animals were sacrificed and apoptotic sunburn cells in the epidermis were determined morphologically. […] Six hours after UVB the animals were sacrificed and apoptotic sunburn cells in the epidermis were determined morphologically.

[1] = Table 1, vs acetone group, 6.2 μmole x3 after UVB 30 mJ/cm^2, 6 h

SMILES | activity in stimulating UVB-induced apoptosis in mouse skin, compared with caffeine | Percent Apoptotic Sunburn Cells (mean ± S.E.) | % Induction [1] [%] | activity in stimulating UVB-induced apoptosis, compared with caffeine | further results
O=C([O-])c1ccccc1.[Na+] [Sodium benzoate, sodium benzoate] |  |  |  |  | Percent Sunburn Cells, UVB (6.2 μmole (each) in 100 μL acetone:water (9:1) immediately after UVB 30 mJ/cm^2 and at 30 and 120 min, 6 h, mean ± S.E.): 0.27 ± 0.08%; enhancement of UVB-induced apoptosis in the epidermis, applied in DERMABASE (DERMABASE vehicle, equimolar amounts (Table 4)): inactive; % Induction (Table 2, vs acetone, 6.2 μmole in acetone:water (9:1)): 29%
Cn1c(=O)c2c(nc(Cl)n2C)n(C)c1=O [8-chlorocaffeine] | little or no activity |  |  |  | 
Cn1cnc2c1c(=O)[nH]c(=O)n2C [Theobromine, 3,7-dimethylxanthine] | little or no activity | 0.358 ± 0.064^ % | 75 | about half as active as caffeine | 
Cn1c(=O)c2[nH]cnc2n(C)c1=O [Theophylline, 1,3-dimethylxanthine] | as active as caffeine | 0.703 ± 0.171^b % | 245 | somewhat more active than caffeine | 
Cn1c(=O)c2c(nc(Br)n2C)n(C)c1=O [8-bromocaffeine] | little or no activity |  |  |  | 
O=c1[nH]c(=O)c2[nH]cnc2[nH]1 [Xanthine, xanthine] | little or no activity | 0.221 ± 0.046^ % | 8 |  | 
CC(=O)CCCCn1c(=O)c2c(ncn2C)n(C)c1=O [Pentoxifylline, pentoxifylline] | little or no activity | 0.318 ± 0.068^ % | 56 | about half as active as caffeine | 
Cn1c(=O)[nH]c2ncn(C)c2c1=O [1,7-dimethylxanthine] | as active as caffeine |  |  |  | 
Cn1c(=O)c2c(ncn2C)n(C)c1=O [Caffeine Citrated, citrated caffeine] |  | 0.757 ± 0.199^b % | 271 |  | 
Cn1c(=O)c2ncn(C)c2n(C)c1=O [1,3,9-trimethylxanthine] | somewhat less active than caffeine |  |  |  | 
